Test results reported in patent US8846746B2, “Pyrazole compound and pharmaceutical use thereof” (Japan Tobacco Inc., priority 2011, dated 2014).

Target: human SGLT1 (Homo sapiens (Human), UniProt P13866)
Assay: SGLT1 inhibitory activity: 14C-AMG uptake into CHO-K1 cell line stably expressing human SGLT1
Format: cell-based
Details: 14C-AMG uptake, CHO-K1 cells expressing human SGLT1
Method: SGLT1 inhibitory activity of a test compound (IC50 value) was calculated based on an amount of intake into a cell of labeled α-methyl-D-glucopyranoside (^14C-AMG) which is transported by SGLT1.
1) Construction of Human SGLT1 Expression Plasmid
A DNA fragment containing human SGLT1, wherein NheI recognition and cleavage sequence was added upstream of a Kozac consensus sequence of the vector; and a stop codon (TAG) and a SalI recognition and cleavage sequence was added just downstream of a coding region of the human SGLT1, was amplified by PCR using pCMV6-hSGLT1 (OriGene) as a template. The purified DNA fragment was cleaved by restriction enzymes NheI and SalI, and the obtained fragment was ligated into pcDNA3.1 (+) which was cleaved by NheI and XhoI to construct human SGLT1 expression plasmid.
2) Establishment of Stable Cell Lines Expressing Human SGLT1
A human SGLT1 expression plasmid pcDNA-hSGLT1 was transfected into CHO-K1 cells by Lipofectamine-2000 (Invitrogen). The cells were cultured in the presence of G418 (Nakalai tesque) and drug-resistant cells were selected. A cell line having the highest S/B ratio of an amount of ^14C-AMG uptake per cell treated by solvent to an amount of ^14C-AMG uptake per cell treated by phlorizin (SGLT inhibitor) was selected from the drug-resistant cells as a stable cell lines expressing human SGLT1.
3) Evaluation of SGLT1 Inhibitory Activity
The stable cell line expressing human SGLT1 was seeded at 5×10^4 cells/well on BioCoat™ Poly-D-Lysine 96 well plate with Lid (Becton Dickinson and Company) and cultured at 37° C. under 5% CO2 overnight. The medium was replaced with 100 μL/well of a Na (−) buffer (140 mM choline chloride, 2 mM KCl, 1 mM MgCl2, 1 mM CaCl2, 10 mM HEPES, 5 mM Tris, pH7.4) followed by incubation for 20 minutes at 37° C. under 5% CO2. After removing the Na (−) buffer, a test compound solution which was prepared from Na (+) buffer (140 mM NaCl, 2 mM KCl, 1 mM MgCl2, 1 mM CaCl2, 10 mM HEPES, 5 mM Tris, pH7.4) containing BSA was added thereto at 40 μL/well. In addition, Na (+) buffer containing 8 kBq of ^14C-AMG and 2 mM AMG was added thereto at 40 μL/well, and was mixed well. Na (−) buffer containing BSA was added to a blank well at 40 μL/well and additionally adding a Na (+) buffer containing 8 kBq of ^14C-AMG and 2 mM AMG, and was mixed well. Cells were incubated for 1 hour at 37° C. under 5% CO2. After the reaction, the cells were washed twice with 100 μL/well of iced wash buffer (100 mM AMG, 140 mM choline chloride, 2 mM KCl, 1 mM MgCl2, 1 mM CaCl2, 10 mM HEPES, 5 mM Tris, pH7.4), then lysed in 50 μL/well of a 0.2N aqueous solution of NaOH. The cell lysate was transferred to OptiPlate96 (Perkin-Elmer) and 100 μL/well of MicroScint-40 (Perkin-Elmer) was dispensed. The radioactivity was counted by TOPCOUNT NXT (Perkin-Elmer).
A data was obtained by deducting the average value (CPM) of blank wells from the average value (CPM) of each treated well. The inhibition ratio (%) was calculated by the following formula: inhibition rate (%)=[(A−B)/A]×100, where A is a data of the solvent control, and B is a data of a test compound.

Sequence of human SGLT1 (P13866 whole entry): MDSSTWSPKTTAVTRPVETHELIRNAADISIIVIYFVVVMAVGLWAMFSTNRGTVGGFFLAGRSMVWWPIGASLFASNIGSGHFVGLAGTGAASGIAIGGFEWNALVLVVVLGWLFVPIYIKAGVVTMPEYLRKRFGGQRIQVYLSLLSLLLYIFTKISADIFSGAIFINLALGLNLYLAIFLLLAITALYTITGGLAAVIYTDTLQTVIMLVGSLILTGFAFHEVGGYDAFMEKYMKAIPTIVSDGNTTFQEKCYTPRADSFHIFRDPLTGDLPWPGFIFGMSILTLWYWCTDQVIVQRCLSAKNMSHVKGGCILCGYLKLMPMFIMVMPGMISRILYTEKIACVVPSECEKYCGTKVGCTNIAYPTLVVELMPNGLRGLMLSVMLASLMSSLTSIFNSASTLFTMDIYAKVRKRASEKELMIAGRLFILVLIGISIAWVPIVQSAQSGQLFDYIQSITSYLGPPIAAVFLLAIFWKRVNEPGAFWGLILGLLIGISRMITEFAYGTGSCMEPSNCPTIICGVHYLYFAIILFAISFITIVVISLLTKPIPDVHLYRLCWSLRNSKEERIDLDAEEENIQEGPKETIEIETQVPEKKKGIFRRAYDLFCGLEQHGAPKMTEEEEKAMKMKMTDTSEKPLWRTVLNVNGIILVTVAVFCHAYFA

| SMILES | IC50 |
| --- | --- |
| CCCCCCn1nc(NC(=O)C2CNC(=O)C2)cc1-c1ccccc1 (racemic) [Example 13] | 250 nM |
| CCCc1cccc(-c2cc(NC(=O)C3CNC(=O)C3)nn2C(C)C)c1 (racemic) [Example 17] | 66 nM |
| CCCc1cccc(-c2cc(NC(=O)C3CNC(=O)C3)nn2CC(C)C)c1 (racemic) [Example 18] | 31 nM |
| CCCc1cccc(-c2cc(NC(=O)C3(C)CNC(=O)C3)nn2-c2ccccc2)c1 (racemic) [Example 21] | 680 nM |
| CCCc1cccc(-c2cc(NC(=O)C3CNC(=O)C3)nn2CC)c1 (racemic) [Example 24] | 130 nM |
| CCCc1cccc(-c2cc(NC(=O)C3CNC(=O)C3)nn2C2CCCCC2)c1 (racemic) [Example 32] | 12 nM |
| CCCc1cccc(-c2cc(NC(=O)C3CNC(=O)C3)nn2C(C)(C)C)c1 (racemic) [Example 42] | 190 nM |
| CCCc1cccc(-c2cc(NC(=O)C3CNC(=O)C3CC)nn2-c2ccccc2)c1 (racemic) [Example 60] | 17 nM |
| CCCc1cccc(-c2cc(NC(=O)C3CNC(=O)C3CCO)nn2-c2ccccc2)c1 (racemic) [Example 115] | 41 nM |
| CC1(C)CCCC(c2cc(NC(=O)[C@H]3CNC(=O)C3)nn2-c2ccccc2)C1 (single isomer, unassigned) [Example 88] | 17 nM |
| CC1(C)CCCC(c2cc(NC(=O)[C@H]3CNC(=O)C3)nn2-c2ccccc2)C1 (single isomer, unassigned) [Example 89] | 140 nM |
| CCC(F)(F)c1cccc(-c2cc(NC(=O)C3CCC(=O)NC3)nn2C2CCOCC2)c1 (single isomer, unassigned) [Example 185] | 66 nM |
| CC(C)(C)c1cccc(-c2cc(NC(=O)C3CCC(=O)NC3)nn2C2CCOCC2)c1 (single isomer, unassigned) [Example 186] | 75 nM |
| O=C1CCC(C(=O)Nc2cc(-c3cccc(OC(F)(F)F)c3)n(C3CCOCC3)n2)CN1 (single isomer, unassigned) [Example 189] | 200 nM |
| C[C@H]1C(=O)NC[C@@H]1C(=O)Nc1cc(-c2cccc(OC(F)(F)F)c2)n(-c2ccccc2)n1 [Example 1, (3R,4R)-4-methyl-5-oxopyrrolidine-3-carboxylic acid[1-phenyl-5-(3-trifluoromethoxyphenyl)-1H-pyrazol-3-yl]amide] | 4 nM |
| C[C@H]1C(=O)NC[C@@H]1C(=O)Nc1cc(-c2cccc(OC(F)(F)F)c2)n(-c2ccc(F)cc2)n1 [Example 2, (3R,4R)-4-methyl-5-oxopyrrolidine-3-carboxylic acid[1-(4-fluorophenyl)-5-(3-(trifluoromethoxy)phenyl)-1H-pyrazol-3-yl]amide] | 3.4 nM |

Other lines, results leading:

| IC50 | SMILES |
| --- | --- |
| 33 nM | CCCc1cccc(-c2cc(NC(=O)C3COC(=O)C3)nn2-c2ccccc2)c1 (racemic) [Example 7, 5-oxotetrahydrofuran-3-carboxylic acid[1-phenyl-5-(3-propylphenyl)-1H-pyrazol-3-yl]amide] |
| 1600 nM | O=C1CC(C(=O)Nc2cc(-c3ccccc3)n(-c3ccccc3)n2)CN1 (racemic) [Example 9] |
| 5500 nM | O=C1CCC(C(=O)Nc2cc(-c3ccccc3)n(-c3ccccc3)n2)CN1 (racemic) [Example 10] |
| 4.6 nM | CCCc1cccc(-c2cc(NC(=O)C3CNC(=O)C3)nn2-c2ccccc2)c1 (racemic) [Example 11] |
| 4400 nM | CCCn1nc(NC(=O)C2CNC(=O)C2)cc1-c1ccccc1 (racemic) [Example 12] |
| 33 nM | CCCc1cccc(-c2cc(NC(=O)C3CC(=O)NC3C)nn2-c2ccccc2)c1 (single isomer, unassigned) [Example 19] |
| 150 nM | CCCc1cccc(-c2cc(NC(=O)C3CC(=O)NC3C)nn2-c2ccccc2)c1 (single isomer, unassigned) [Example 20] |
| 7.7 nM | O=C1CCC(C(=O)Nc2cc(-c3cccc(OC(F)(F)F)c3)n(-c3ccccc3)n2)CN1 (single isomer, unassigned) [Example 150] |
| 19 nM | CCC(F)(F)c1cccc(-c2cc(NC(=O)C3CCC(=O)NC3)nn2-c2ccccc2)c1 (single isomer, unassigned) [Example 151] |
| 22 nM | O=C1CCC(C(=O)Nc2cc(-c3cccc(OC(F)(F)F)c3)n(-c3ccc(F)cc3)n2)CN1 (single isomer, unassigned) [Example 165] |
| 15 nM | O=C1CCC(C(=O)Nc2cc(-c3cccc(OC(F)(F)F)c3)n(-c3ccccc3F)n2)CN1 (single isomer, unassigned) [Example 167] |
| 36 nM | O=C1CCC(C(=O)Nc2cc(-c3cccc(OC(F)(F)F)c3)n(-c3cccc(F)c3)n2)CN1 (single isomer, unassigned) [Example 168] |
| 8.3 nM | CCC(F)(F)c1cccc(-c2cc(NC(=O)C3CCC(=O)NC3)nn2-c2cccc(F)c2)c1 (single isomer, unassigned) [Example 171] |

Same assay, conditions: 14C-AMG uptake, CHO-K1 cells stably expressing human SGLT1

| SMILES | IC50 |
| --- | --- |
| O=C(Nc1cc(-c2cccc(COCC(F)(F)F)c2)n(-c2ccccc2)n1)C1CNC(=O)C12CC2 (single isomer, unassigned) [Example 250, 4-oxo-5-azabispiro[2.4]heptane-7-carboxylic acid{1-phenyl-5-[3-(2,2,2-trifluoroethoxymethyl)phenyl]-1H-pyrazol-3-yl}amide] | 3.4 nM |
| CCCc1cccc(-c2cc(NC(=O)C3CNC(=O)C3CC)nn2-c2ccccc2)c1 (single isomer, unassigned) [Example 307] | 6 nM |
| CCC1C(=O)NCC1C(=O)Nc1cc(-c2cccc(OC(F)(F)F)c2)n(-c2ccccc2)n1 (single isomer, unassigned) [Example 308] | 16 nM |
| CCCc1cccc(-c2cc(NC(=O)C3CNC(=O)C3CC)nn2-c2ccccc2)c1 (single isomer, unassigned) [Example 309] | 49 nM |

Results, then the molecule that gave them:

| IC50 | SMILES |
| --- | --- |
| 3 nM | CCCc1cccc(-c2cc(NC(=O)C3CCS(=O)(=O)C3)nn2-c2ccccc2)c1 (racemic) [Example 320] |
| 20 nM | CC(C)(C)COCc1cccc(-c2cc(NC(=O)C3CCC(=O)NC3)nn2-c2ccccc2)c1 (single isomer, unassigned) [Example 333] |
| 25 nM | CC(C)(C)OCc1cccc(-c2cc(NC(=O)C3CCC(=O)NC3)nn2-c2ccccc2)c1 (single isomer, unassigned) [Example 336] |
| 17 nM | O=C1CCC(C(=O)Nc2cc(-c3cccc(COCCC(F)(F)F)c3)n(-c3ccccc3)n2)CN1 (single isomer, unassigned) [Example 338] |
| 45 nM | CC(C)(C)CCOc1cccc(-c2cc(NC(=O)C3CCC(=O)NC3)nn2-c2ccccc2)c1 (single isomer, unassigned) [Example 342] |
| 1.5 nM | CCCc1cccc(-c2cc(NC(=O)C3CNC(=O)C34CC4)nn2-c2ccccc2)c1 (single isomer, unassigned) [Example 360] |
| 18 nM | CCCc1cccc(-c2cc(NC(=O)C3CC(=O)NC3C)nn2-c2ccccc2)c1 (single isomer, unassigned) [Example 404] |
| 24 nM | O=C1CCC(C(=O)Nc2cc(-c3cccc(COCC(F)(F)F)c3)n(-c3ccccc3)n2)CN1 (single isomer, unassigned) [Example 560] |

Same assay, conditions: CHO-K1, at 0.1 uM

| inhibition at 0.1 µM | SMILES |
| --- | --- |
| 20% | CC1C(=O)NC(O)C1C(=O)Nc1cc(-c2cccc(OC(F)(F)F)c2)n(-c2ccc(F)cc2)n1 (racemic) [Example 259] |
| 43% | CCCc1cccc(-c2cc(NC(=O)C3CNC(=O)C(C)C3)nn2-c2ccccc2)c1 (racemic) [Example 292] |

Same assay, conditions: CHO-K1, at 0.3 uM

| inhibition at 0.3 µM | SMILES |
| --- | --- |
| 49% | CC1C(=O)NC(O)C1C(=O)Nc1cc(-c2cccc(OC(F)(F)F)c2)n(-c2ccccc2)n1 (racemic) [Example 254] |

Same assay, conditions: at 0.1 uM

| human SGLT1 % Inhibition | SMILES |
| --- | --- |
| 27% | CCCc1cccc(-c2cc(NC(=O)C3CNC(=O)C(C)C3)nn2-c2ccccc2)c1 (racemic) [Example 293] |
